Values after ≈ are worked out from the molar mass of the structure shown. Read-outs that look alike come from different tables or passages of the source. Residues, ends and D or L forms follow the SMILES beside them. No end group written: not given here. *: point of attachment. Fmoc = O=C(OCC1c2ccccc2-c2ccccc21)*
How the values were obtained:
E. coli = assay: Fluorescence assisted cell sorting (FACS) live/dead assay; type: cell-based; conditions: overnight 36-37°C, SYTO 9/propidium iodide
Procedure: (§1) FACS assay was performed following the LIVE/DEAD™ BacLight™ Bacterial Viability Kit (L7012) instructions and stablished procedures ([Berney et al., 2007]; [Robertson et al., 2019]), in which bacteria were grown in Mueller Hinton Broth and fungal in Sabouraud Broth overnight to a late–log phase. Then, 900 μl of the cell suspension was added to 100 μl of five different concentrations of peptides solution and incubated overnight at 36°C–37°C. On the next day, the suspension was centrifuged at 10,000 × g for 10 min and the supernatant fraction was removed from the samples. The pellets were resuspended with 1 ml of PBS buffer and incubated at room temperature for 1 h, mixing every 15 min. The sample was centrifuged at 10,000 × g for 10 min, the supernatant removed followed by the resuspension of the pellet in 1 ml of PBS. The washing steps were repeated twice. To perform the staining of the cells, equal volumes of SYTO® 9 and propidium iodide were combined in a microfuge tube and 3 µl of the dye mixture was added to each microbial suspension. The sample was incubated at room temperature in the dark for 15 min. The evaluation of cell viability was performed through the calculation of the red to green fluorescence ratio to determine the proportion of live cells in a sample.

[1] = test system: C. auris Fluconazole resistant; assay: as above; type: cell-based; conditions: overnight 36-37°C, SYTO 9/propidium iodide
Procedure: as §1

[2] = test system: S. aureus Methicillin resistant; assay: as above; type: cell-based; conditions: overnight 36-37°C, SYTO 9/propidium iodide
Procedure: as §1

[3] = test system: Streptococcus pneumoniae ATCC 49619; type: cell-based
Excerpt: (§2) Indolicidin (sequence: ILPWKWPWWPWRR-NH2, molecular weight: 1,906.3 g/mol) and FMOC-WWRR-NH2 (molecular weight: 924.1) were obtained from ChemPep (USA) as lyophilized powder and acetate salts with a purity >95%. Ethanol and Congo red were purchased from Sigma-Aldrich (Australia). Sodium chloride was purchased from Alfa Aesar (United Kingdom). The negative staining agent phosphotungstic acid was purchased from Proscitech (Australia). A Milipore filter system was utilized to obtain Milli-Q water. BD Difco Mueller Hinton Broth (MHB) and Sabouraud broth (SB) were purchased from Cell biosciences (Australia). Strains: E. coli NCTC 10418, P. aeruginosa ATCC 9721, E. faecalis ATCC 19433, S. aureus ATCC 25923, S. aureus ATCC BAA-1756 (methicillin resistant), Streptococcus pneumoniae ATCC 49619, Candida albicans ATCC 10231 and Candida auris DSM 21092 (Fluconazole resistant) were provided by the RMIT microbial culture collection. Bacterial strains were stored in 50% glycerol at −20 and −80°C.
(§3) Minimal inhibitory concentration (MIC) assays were performed following a standard broth dilution procedure ([Wiegand et al., 2008]) in which bacteria were grown in MHB and fungal in SB overnight. The overnight bacterial suspension was adjusted to 10^6 CFU/ml in broth according to MacFarlane standard. Bacterial solutions were mixed in 96-well plates with the peptide solution to reach final concentrations of peptides ranging from 1,082 to 2 μM, including inhibition control (Indolicidin), growth control, and sterility control. Within each MIC experiment, each peptide was tested in triplicate across this concentration range and repeated on 3 independent days. Media and glassware were sterilized at 120°C for 1 h with an autoclave prior to all bioassays.

E. faecalis ATCC 19433 = type: cell-based
Excerpt: as §2, §3

[4] = test system: Candida albicans ATCC 10231; type: cell-based
Excerpt: as §2, §3

P. aeruginosa ATCC 9721 = type: cell-based
Excerpt: as §2, §3

E. coli NCTC 10418 = type: cell-based
Excerpt: as §2, §3

[5] = test system: Candida auris DSM 21092 (Fluconazole resistant); type: cell-based
Excerpt: as §2, §3

S. aureus ATCC 25923 = type: cell-based; conditions: ATCC 25923, 1 h
Excerpt: as §2, §3

[6] = test system: S. aureus ATCC BAA-1756 (methicillin resistant); type: cell-based
Excerpt: as §2, §3

E. faecium = type: cell-based
Procedure: as §3

[7] = Self-assembly and hydrogelation in water (electron microscopy, rheology, observation); type: physicochemical
Procedure: (§4) The peptides were prepared by mixing the lyophilized peptide directly with type 1 water, vortexed for a few seconds to obtain an isotropic solution and stored at 4°C–5°C in between experiments.
Carbon-coated grids (EMSCF200H-CU-TH, ProSciTech) were glow discharged to render them hydrophilic. A 1–5 μl aliquot of sample was applied to an upturned grid held in anti-capillary forceps, over moist filter paper, and left for 5 min over moistened filter paper to adsorb. Excess liquid was then removed with filter paper, the grid was then inverted onto a drop of 2% PTA stain, pH 6.9 on Parafilm, for 1 min. […] Images were recorded using a FEI Eagle 4 k × 4 k CCD camera and AnalySIS v3.2 camera control software (Olympus).
A laboratory-built humidity-controlled vitrification system was used to prepare the samples for Cryo-TEM. […] Images were recorded using a FEI Eagle 4 k × 4 k CCD camera at a range of magnifications using AnalySIS v3.2 camera control software (Olympus).
Rheology was undertaken on a calibrated rheometer (Anton Paar MCR 301, Anton Paar Pty. Ltd. Austria) fitted with a 15 mm cone plate fixture with a cone angle of 1° (CP15-1, Anton Paar Pty. Ltd. Austria). […] All measurements were carried out in triplicate with the mean and standard deviation shown, calculated and plotted in GraphPad Prism.

[8] = Peptide assembly state from ATR-FTIR arginine side-chain vibrations; type: physicochemical; conditions: ATR-FTIR 25°C
Procedure: as §4
Data was recorded at 25°C using a Tensor-II spectrometer (Bruker, Germany) equipped with a Bio-ATR attachment (Bruker, Germany) by directly depositing the samples on the ATR crystal as previous reported by our group ([Dharmadana et al., 2019]). Spectra were collected over 32 scans within 4,000–400 cm^−1 wavenumber range at a resolution of 4 cm^−1. Associated water signal was subtracted from the resulting spectra, and secondary derivatives were calculated using OPUS software (Bruker, Germany).

[9] = type: physicochemical
Procedure: as §4

[10] = broth dilution in MHB, 10^6 CFU/ml, peptide 1,082 to 2 μM, triplicate on 3 independent days
[11] = broth dilution in Sabouraud broth, peptide 1,082 to 2 μM, triplicate on 3 independent days

N=C(N)NCCC[C@H](NC(=O)[C@H](CCCNC(=N)N)NC(=O)[C@H](Cc1c[nH]c2ccccc12)NC(=O)[C@@H]1CCCN1C(=O)[C@H](Cc1c[nH]c2ccccc12)NC(=O)OCC1c2ccccc2-c2ccccc21)C(N)=O [P-Priscilicidin, Fmoc-WPWRR-NH2] (Fmoc-WPWRR-NH2)
Dead % (E. coli; 12 µM peptide): 2%
Live % (E. coli; 12 µM peptide): 93%
Dead % (E. coli; 24 µM peptide): 33%
Live % (E. coli; 24 µM peptide): 57%
Dead % (E. coli; 49 µM peptide): 48%
Live % (E. coli; 49 µM peptide): 33%
Dead % (E. coli; 98 µM peptide): 44%
Live % (E. coli; 98 µM peptide): 35%
Dead % (E. coli; 196 µM peptide): 89%
Live % (E. coli; 196 µM peptide): 2%
FACS minimum concentration showing over 90% dead microbes, E. coli (E. coli): 196 µM
Dead % ([1]; 12 µM peptide): 33%
Live % ([1]; 12 µM peptide): 67%
Dead % ([1]; 24 µM peptide): 95%
Live % ([1]; 24 µM peptide): 4%
Dead % ([1]; 49 µM peptide): 98%
Live % ([1]; 49 µM peptide): 2%
Dead % ([1]; 98 µM peptide): 98%
Live % ([1]; 98 µM peptide): 1%
Dead % ([1]; 196 µM peptide): 98%
Live % ([1]; 196 µM peptide): 2%
Dead % ([2]; 12 µM peptide): 5%
Live % ([2]; 12 µM peptide): 95%
Dead % ([2]; 24 µM peptide): 7%
Live % ([2]; 24 µM peptide): 95%
Dead % ([2]; 98 µM peptide): 83%
Live % ([2]; 98 µM peptide): 19%
Dead % ([2]; 196 µM peptide): 97%
Live % ([2]; 196 µM peptide): 4%
FACS minimum concentration showing over 90% dead microbes, S. aureus Methicillin resistant [2]: 196 µM
MIC S. pneumoniae ([3]; ATCC 49619, 1 h): 31 µM (≈ 31.7 µg/mL)
MIC E. faecalis (E. faecalis ATCC 19433; ATCC 19433, 1 h): 61 µM (≈ 62.3 µg/mL)
MIC C. albicans ([4]; ATCC 10231, 1 h): 15 µM (≈ 15.3 µg/mL)
MIC P. aeruginosa (P. aeruginosa ATCC 9721; ATCC 9721, 1 h): 61 µM (≈ 62.3 µg/mL)
MIC E. coli (E. coli NCTC 10418; NCTC 10418, 1 h): 122 µM (≈ 125 µg/mL)
MIC C. auris Fluconazole resistant ([5]; DSM 21092, 1 h): 31 µM (≈ 31.7 µg/mL)
MIC S. aureus (S. aureus ATCC 25923): 31 µM (≈ 31.7 µg/mL)
MIC S. aureus Methicillin resistant ([6]; ATCC BAA-1756, 1 h): 61 µM (≈ 62.3 µg/mL)
MIC E. faecium (E. faecium; 1 h): 61 µM (≈ 62.3 µg/mL)
Nanostructures imaged by electron microscopy ([7]; 10% wt in water, 1 month incubation, in coexistence with globular oligomers): nanoribbons
State of aqueous samples (rheology summary) ([7]; peptide in water, oscillatory rheology G'/G''): colloidal solutions of low viscosity
Interpretation for peptide assembly according to MD ([8]; 1 % wt in water, 30 days after mixing): monomer/globular oligomer
Interpretation for peptide assembly according to MD ([8]; 1 % wt in water, time after mixing 0): monomer/globular oligomer
Interpretation for peptide assembly according to MD ([8]; 5 % wt in water, 30 days after mixing): monomer/globular oligomer
Interpretation for peptide assembly according to MD ([8]; 5 % wt in water, time after mixing 0): monomer/globular oligomer
Interpretation for peptide assembly according to MD ([8]; 10 % wt in water, 30 days after mixing): monomer/globular oligomer
Interpretation for peptide assembly according to MD ([8]; 10 % wt in water, time after mixing 0): monomer/globular oligomer

N=C(N)NCCC[C@H](NC(=O)[C@H](CCCNC(=N)N)NC(=O)[C@H](Cc1c[nH]c2ccccc12)NC(=O)[C@H](Cc1c[nH]c2ccccc12)NC(=O)OCC1c2ccccc2-c2ccccc21)C(N)=O [Priscilicidin, Fmoc-WWRR-NH2] (Fmoc-WWRR-NH2)
MIC S. pneumoniae ([3]; ATCC 49619, 1 h): 17 µM (≈ 15.7 µg/mL)
MIC E. faecalis (E. faecalis ATCC 19433; ATCC 19433, 1 h): 68 µM (≈ 62.8 µg/mL)
MIC C. albicans ([4]; ATCC 10231, 1 h): 8 µM (≈ 7.39 µg/mL)
MIC P. aeruginosa (P. aeruginosa ATCC 9721; ATCC 9721, 1 h): 68 µM (≈ 62.8 µg/mL)
MIC E. coli (E. coli NCTC 10418; NCTC 10418, 1 h): 68 µM (≈ 62.8 µg/mL)
MIC C. auris Fluconazole resistant ([5]; DSM 21092, 1 h): 17 µM (≈ 15.7 µg/mL)
MIC S. aureus (S. aureus ATCC 25923): 17 µM (≈ 15.7 µg/mL)
MIC S. aureus Methicillin resistant ([6]; ATCC BAA-1756, 1 h): 34 µM (≈ 31.4 µg/mL)
MIC E. faecium (E. faecium; 1 h): 34 µM (≈ 31.4 µg/mL)
Concentration easily solubilised in pure water [9]: at least 10 % w/w

CC[C@H](C)[C@H](N)C(=O)N[C@@H](CC(C)C)C(=O)N1CCC[C@H]1C(=O)N[C@@H](Cc1c[nH]c2ccccc12)C(=O)N[C@@H](CCCCN)C(=O)N[C@@H](Cc1c[nH]c2ccccc12)C(=O)N1CCC[C@H]1C(=O)N[C@@H](Cc1c[nH]c2ccccc12)C(=O)N[C@@H](Cc1c[nH]c2ccccc12)C(=O)N1CCC[C@H]1C(=O)N[C@@H](Cc1c[nH]c2ccccc12)C(=O)N[C@@H](CCCNC(=N)N)C(=O)N[C@@H](CCCNC(=N)N)C(N)=O [Indolicidin, reference compound]
MIC S. pneumoniae [3, 10]: 16 µM (≈ 30.5 µg/mL)
MIC E. faecalis (E. faecalis ATCC 19433; [10]): 33 µM (≈ 62.9 µg/mL)
MIC C. albicans [4, 11]: 4 µM (≈ 7.63 µg/mL)
MIC P. aeruginosa (P. aeruginosa ATCC 9721; [10]): 33 µM (≈ 62.9 µg/mL)
MIC E. coli (E. coli NCTC 10418; [10]): 16 µM (≈ 30.5 µg/mL)
MIC C. auris Fluconazole resistant [5, 11]: 16 µM (≈ 30.5 µg/mL)
MIC S. aureus Methicillin resistant ([6]; second value of cell S. aureus/Methicillin resistant, broth dilution in MHB, 10^6 CFU/ml, peptide 1,082 to 2 μM, triplicate on 3 independent days): 33 µM (≈ 62.9 µg/mL)
MIC E. faecium (E. faecium; [10]): 33 µM (≈ 62.9 µg/mL)

WPWRR-NH2 [Indolicidin C-terminus, WPWRR-NH2, reference compound]
MIC C. albicans ([4]; ATCC 10231, 1 h): 78 µM
MIC P. aeruginosa (P. aeruginosa ATCC 9721; ATCC 9721, 1 h): 313 µM
MIC E. coli (E. coli NCTC 10418; NCTC 10418, 1 h): 313 µM
MIC C. auris Fluconazole resistant ([5]; DSM 21092, 1 h): 313 µM

Reference: article PMC9881724, “Rational design of potent ultrashort antimicrobial peptides with programmable assembly into nanostructured hydrogels” (Frontiers in Chemistry, 2023)
